Where “and” joins values, the source holds several entries; their conditions need not be identical. Equal entries are not always repeated. HELM strings list units from the 5' end as sugar, base in round brackets, then linkage (d deoxyribose, r ribose, m 2'-O-methyl, p phosphodiester). Strings are as the collection lists them, not checked against the first reports. ss, as = sense and antisense strand; [lna] = locked nucleic acid (LNA); [s4r] = 4'-thioribose; [fl2r] = 2'-fluoro
Further: test system not given here.

The conditions of the series: siRNA.
Turning to “RNA1{r(G)p.r(A)p.r(A)p.r(G)p.r(A)p.r(G)p.r(C)p.r(C)p.m(U)p.r(A)p.m(C)p.r(A)p.m(C)p.r(A)p.r(A)p.r(C)p.r(C)p.r(C)p.r(U)p.r(T)p.r(T)}|RNA2{r(A)p.r(G)p.r(G)p.r(G)p.r(U)p.m(U)p.r(G)p.m(U)p.r(G)p.m(U)p.r(A)p.r(G)p.r(G)p.r(C)p.r(U)p.r(C)p.r(U)p.r(U)p.r(C)p.r(T)p.r(T)}$$$RNA1{StrandType:ss}|RNA2{StrandType:as}$”, the target mRNA knockdown was 75%.
Then “RNA1{[lna](G)p.r(C)p.r(U)p.r(G)p.r(A)p.r(C)p.r(C)p.r(C)p.r(U)p.r(G)p.r(A)p.r(A)p.r(G)p.r(U)p.r(U)p.r(C)p.r(A)p.r(U)p.r(C)p.[lna](T)p.[lna](T)}|RNA2{r(G)p.r(A)p.r(U)p.r(G)p.r(A)p.r(A)p.r(C)p.r(U)p.r(U)p.r(C)p.r(A)p.r(G)p.r(G)p.r(G)p.r(U)p.r(C)p.r(A)p.r(G)p.r(C)p.[lna](T)p.[lna](T)}$$$RNA1{StrandType:ss}|RNA2{StrandType:as}$”, with 61%; and “RNA1{r(A)p.r(G)p.r(A)p.r(G)p.r(A)p.r(G)p.r(G)p.[fl2r](U)p.r(G)p.r(G)p.r(A)p.r(G)p.r(G)p.r(U)p.r(A)p.r(U)p.r(C)p.r(U)p.r(C)p.r(T)p.r(T)}|RNA2{r(G)p.r(A)p.r(G)p.r(A)p.[fl2r](U)p.r(A)p.r(C)p.r(C)p.r(U)p.r(C)p.r(C)p.r(A)p.r(C)p.r(C)p.r(U)p.r(C)p.r(U)p.r(C)p.r(U)p.r(T)p.r(T)}$$$RNA1{StrandType:ss}|RNA2{StrandType:as}$”, with 88%; and “RNA1{r(A)p.r(A)p.r(C)p.r(A)p.r(G)p.r(U)p.r(C)p.r(C)p.r(U)p.m(U)p.r(A)p.r(G)p.r(C)p.m(U)p.r(A)p.r(C)p.r(G)p.r(C)p.m(U)p.r(T)p.r(T)}|RNA2{r(A)p.r(G)p.r(C)p.r(G)p.m(U)p.r(A)p.r(G)p.r(C)p.r(U)p.r(A)p.r(A)p.r(G)p.r(G)p.r(A)p.r(C)p.r(U)p.r(G)p.r(U)p.r(U)p.r(T)p.r(T)}$$$RNA1{StrandType:ss}|RNA2{StrandType:as}$”, with 82%.
With “RNA1{r(A)p.r(G)p.r(U)p.[fl2r](U)p.r(A)p.r(A)p.r(C)p.r(C)p.r(C)p.r(G)p.r(G)p.r(G)p.r(A)p.r(C)p.r(U)p.[fl2r](U)p.r(G)p.r(G)p.r(A)p.r(T)p.r(T)}|RNA2{r(U)p.r(C)p.[fl2r](C)p.r(A)p.r(A)p.r(G)p.r(U)p.r(C)p.r(C)p.r(C)p.r(G)p.r(G)p.r(G)p.r(U)p.[fl2r](U)p.r(A)p.r(A)p.r(C)p.r(U)p.r(T)p.r(T)}$$$RNA1{StrandType:ss}|RNA2{StrandType:as}$”, the target mRNA knockdown is 85% and 86%.
Then “RNA1{r(U)p.r(C)p.m(U)p.r(A)p.m(C)p.r(A)p.r(C)p.r(C)p.r(G)p.m(C)p.r(G)p.r(C)p.m(C)p.r(C)p.r(C)p.r(C)p.r(C)p.r(U)p.r(C)p.r(T)p.r(T)}|RNA2{r(G)p.r(A)p.r(G)p.r(G)p.r(G)p.r(G)p.r(G)p.r(G)p.r(C)p.r(G)p.r(C)p.r(G)p.r(G)p.m(U)p.r(G)p.m(U)p.r(A)p.r(G)p.r(A)p.r(T)p.r(T)}$$$RNA1{StrandType:ss}|RNA2{StrandType:as}$”, with 73%; and “RNA1{m(G)p.r(A)p.m(U)p.r(A)p.m(C)p.r(U)p.m(U)p.r(C)p.m(U)p.r(G)p.m(G)p.r(U)p.m(U)p.r(C)p.m(C)p.r(C)p.m(U)p.r(C)p.m(C)p.r(T)p.r(T)}|RNA2{r(G)p.r(G)p.r(A)p.r(G)p.r(G)p.r(G)p.r(A)p.r(A)p.r(C)p.r(C)p.r(A)p.r(G)p.r(A)p.r(A)p.r(G)p.r(U)p.r(A)p.r(U)p.r(C)p.r(T)p.r(T)}$$$RNA1{StrandType:ss}|RNA2{StrandType:as}$”, with 45%.
On to “RNA1{r(G)p.r(A)p.m(U)p.r(A)p.r(C)p.r(U)p.r(U)p.r(C)p.m(U)p.r(G)p.r(G)p.r(U)p.r(U)p.r(C)p.r(C)p.r(C)p.r(U)p.r(C)p.r(C)p.r(T)p.r(T)}|RNA2{r(G)p.r(G)p.r(A)p.r(G)p.r(G)p.r(G)p.r(A)p.r(A)p.r(C)p.m(C)p.r(A)p.r(G)p.r(A)p.r(A)p.r(G)p.m(U)p.r(A)p.r(U)p.r(C)p.r(T)p.r(T)}$$$RNA1{StrandType:ss}|RNA2{StrandType:as}$”, for which the target mRNA knockdown came out at 45%.
In the case of “RNA1{m(G)p.r(G)p.m(C)p.r(G)p.m(G)p.r(G)p.m(C)p.r(U)p.m(C)p.r(U)p.m(U)p.r(U)p.m(C)p.r(C)p.m(U)p.r(A)p.m(U)p.r(U)p.m(C)p.r(T)p.r(T)}|RNA2{r(G)p.r(A)p.r(A)p.r(U)p.r(A)p.r(G)p.r(G)p.r(A)p.r(A)p.r(A)p.r(G)p.r(A)p.r(G)p.r(C)p.r(C)p.r(C)p.r(G)p.r(C)p.r(C)p.r(T)p.r(T)}$$$RNA1{StrandType:ss}|RNA2{StrandType:as}$”, the target mRNA knockdown is 51%.
As for “RNA1{[fl2r](G)p.r(C)p.[fl2r](C)p.r(U)p.[fl2r](C)p.r(U)p.[fl2r](C)p.r(U)p.[fl2r](A)p.r(U)p.[fl2r](C)p.r(C)p.[fl2r](U)p.r(U)p.[fl2r](A)p.r(G)p.[fl2r](C)p.r(U)p.r(U)p.r(T)p.r(T)}|RNA2{r(A)p.r(A)p.r(G)p.r(C)p.r(U)p.r(A)p.[fl2r](A)p.r(G)p.r(G)p.r(A)p.r(U)p.[fl2r](A)p.r(G)p.r(A)p.r(G)p.r(A)p.r(G)p.r(G)p.r(C)p.r(T)p.r(T)}$$$RNA1{StrandType:ss}|RNA2{StrandType:as}$”, the target mRNA knockdown came to 34%.
Substance “RNA1{[fl2r](A)p.r(A)p.[fl2r](G)p.r(G)p.[fl2r](C)p.r(C)p.[fl2r](A)p.r(A)p.[fl2r](C)p.r(C)p.[fl2r](G)p.r(A)p.[fl2r](U)p.r(A)p.[fl2r](C)p.r(U)p.[fl2r](U)p.r(C)p.[fl2r](U)p.r(T)p.r(T)}|RNA2{r(A)p.r(G)p.r(A)p.r(A)p.r(G)p.[fl2r](U)p.r(A)p.[fl2r](U)p.r(C)p.r(G)p.r(G)p.[fl2r](U)p.[fl2r](U)p.r(G)p.r(G)p.r(C)p.r(C)p.[fl2r](U)p.[fl2r](U)p.r(T)p.r(T)}$$$RNA1{StrandType:ss}|RNA2{StrandType:as}$” returned a target mRNA knockdown of 46%.
As for “RNA1{r(A)p.r(G)p.r(A)p.r(A)p.r(A)p.r(C)p.r(G)p.r(C)p.r(A)p.r(G)p.m(U)p.r(A)p.r(A)p.r(U)p.r(C)p.r(C)p.r(G)p.r(G)p.r(A)p.r(T)p.r(T)}|RNA2{r(U)p.r(C)p.r(C)p.r(G)p.r(G)p.r(A)p.r(U)p.r(U)p.r(A)p.r(C)p.m(U)p.r(G)p.r(C)p.r(G)p.r(U)p.r(U)p.r(U)p.r(C)p.r(U)p.r(T)p.r(T)}$$$RNA1{StrandType:ss}|RNA2{StrandType:as}$”, the target mRNA knockdown was found to be 82%.
As to “RNA1{[s4r](A)p.[s4r](A)p.[s4r](A)p.[s4r](C)p.r(A)p.r(U)p.r(G)p.r(C)p.r(A)p.r(G)p.r(A)p.r(A)p.r(A)p.r(A)p.r(U)p.r(G)p.r(C)p.r(U)p.r(G)p.r(T)p.r(T)}|RNA2{r(C)p.r(A)p.r(G)p.r(C)p.r(A)p.r(U)p.r(U)p.r(U)p.r(U)p.r(C)p.r(U)p.r(G)p.r(C)p.r(A)p.r(U)p.r(G)p.r(U)p.[s4r](U)p.[s4r](U)p.r(T)p.r(T)}$$$RNA1{StrandType:ss}|RNA2{StrandType:as}$”, the target mRNA knockdown is 76.5%.
Then “RNA1{r(A)p.r(A)p.r(A)p.r(G)p.r(G)p.r(G)p.r(G)p.r(A)p.r(G)p.r(U)p.m(U)p.r(G)p.r(C)p.m(U)p.r(G)p.r(G)p.r(A)p.r(A)p.r(G)p.r(T)p.r(T)}|RNA2{r(C)p.r(U)p.r(U)p.r(C)p.m(C)p.r(A)p.r(G)p.r(C)p.r(A)p.r(A)p.r(C)p.r(U)p.r(C)p.r(C)p.r(C)p.r(C)p.r(U)p.r(U)p.r(U)p.r(T)p.r(T)}$$$RNA1{StrandType:ss}|RNA2{StrandType:as}$”, with 76%.

(Values after the OligoGym collection.)
